ChEMBL document CHEMBL1201862, “PubChem BioAssay data set” (2004)
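The compound was tested at five concentrations on cells cultured in 96-well plates, with a 48-hour exposure period. The concentration for 50% growth inhibition is given as GI50.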 Active and inactive are the calls of the source. Cut-off read from the data, not from the text of the source: active = GI50 up to about 1.1 µM and inactive = higher.

Columns and labels:
Assay in all cases: NCI-60 cell line screen, 48 h
[1] = system: CAKI-1
[2] = system: CCRF-CEM
[3] = system: DU-145
[4] = system: HCT-116
[5] = system: Hs-578T
[6] = system: IGROV-1
[7] = system: K562
[8] = system: LOX IMVI
[9] = system: M14
[10] = system: MDA-MB-231
[11] = system: Malme-3M
[12] = system: NCI/ADR-RES
[13] = system: PC-3
[14] = system: RPMI-8226
[15] = system: SF-268
[16] = system: SK-MEL-2
[17] = system: SN12C
[18] = system: SW-620
[19] = system: UACC-62
[20] = system: HCC 2998

Measured: GI50

Clc1ccccc1/C=C/c1nsc(/C=C/c2ccccc2Cl)n1
inactive: [1] > 100 µM | [2] 22.7 µM | [3] > 100 µM | [4] 34.8 µM | [5] > 100 µM | [6] 84.1 µM | [7] 21.8 µM | [8] 37.2 µM | [9] 70.6 µM | [10] 60 µM | [11] 53.7 µM | [12] 45.2 µM | [13] 30.1 µM | [14] 31.3 µM | [15] 55.5 µM | [16] > 100 µM | [17] 23.6 µM

CCOC(=O)c1c2c(n(C)c1-c1ccccc1)C(=O)C(C)=CC2=O
inactive: [1] 13.5 µM | [2] 2.51 µM | [3] 17.5 µM | [4] 3.6 µM | [5] 18.4 µM | [6] 5.46 µM | [7] 3.44 µM | [8] 3.48 µM | [9] 3.66 µM | [10] 2.08 µM | [11] 9.04 µM | [12] 7.83 µM | [13] 11.4 µM | [14] 1.9 µM | [15] 8.11 µM | [16] 13.6 µM | [17] 7.69 µM | [18] 4.06 µM | [19] 10.9 µM

CCOC(=O)C1C(O)CC2c3ccccc3-c3ccccc3C21 (stereo unspecified)
inactive: [1] > 100 µM | [2] 8.85 µM | [3] > 100 µM | [4] 19.8 µM | [5] 21.3 µM | [6] 47.1 µM | [7] 96.2 µM | [8] > 100 µM | [9] > 100 µM | [10] 25.9 µM | [11] > 100 µM | [12] 40.5 µM | [13] > 100 µM | [14] > 100 µM | [15] 31.4 µM | [16] > 100 µM | [17] > 100 µM | [18] 48.4 µM | [19] 44.4 µM

Cc1cc(C)n(CN(Cn2nc(C)cc2C)c2ccccc2)n1
inactive: [1] 20.4 µM | [2] 23.3 µM | [3] 30.3 µM | [4] 19.8 µM | [5] 45 µM | [6] 25.5 µM | [7] 15.6 µM | [8] 1.5 µM | [9] 16.3 µM | [10] 37.6 µM | [11] 22.8 µM | [12] 20.8 µM | [13] 27.8 µM | [14] 18.4 µM | [15] 20.4 µM | [16] 19 µM | [17] 35.1 µM | [18] 18.2 µM | [19] 10.6 µM

CC(C)(CO)CNc1nc(N)nc(Cl)c1N
inactive: [1] > 100 µM | [2] > 100 µM | [3] > 100 µM | [20] > 100 µM | [4] > 100 µM | [5] > 100 µM | [6] > 100 µM | [7] > 100 µM | [8] > 100 µM | [10] > 100 µM | [11] > 100 µM | [12] > 100 µM | [13] > 100 µM | [15] > 100 µM | [16] > 100 µM | [17] > 100 µM | [18] > 100 µM | [19] > 100 µM

CC(=O)OCC1OC(c2nc3ccccc3s2)=CC(OC(C)=O)C1OC(C)=O (stereo unspecified)
inactive: [1] > 100 µM | [2] > 100 µM | [3] > 100 µM | [4] 57.5 µM | [5] > 100 µM | [6] > 100 µM | [7] 50.5 µM | [8] > 100 µM | [10] > 100 µM | [11] > 100 µM | [12] > 100 µM | [13] > 100 µM | [14] 37.3 µM | [15] 43.6 µM | [17] > 100 µM | [18] > 100 µM

CC(C)c1cc(C(C)C)c(B(c2ccccc2)c2ccccc2)c(C(C)C)c1Br
inactive: [1] > 100 µM | [2] > 100 µM | [3] > 100 µM | [20] > 100 µM | [4] > 100 µM | [5] > 100 µM | [6] > 100 µM | [7] > 100 µM | [8] > 100 µM | [9] > 100 µM | [10] > 100 µM | [11] > 100 µM | [12] > 100 µM | [13] > 100 µM | [15] > 100 µM | [16] > 100 µM | [17] > 100 µM | [18] > 100 µM | [19] > 100 µM

CC(C)(C)c1cc(C2NCCO2)cc(C(C)(C)C)c1O (stereo unspecified)
inactive: [1] 45.9 µM | [2] > 100 µM | [3] > 100 µM | [4] > 100 µM | [5] 79.3 µM | [6] 96.6 µM | [7] > 100 µM | [8] > 100 µM | [10] 20.6 µM | [11] > 100 µM | [12] > 100 µM | [13] 82 µM | [14] > 100 µM | [15] 32.4 µM | [16] 35.2 µM | [17] 89.7 µM | [18] > 100 µM | [19] > 100 µM

FC(F)(F)c1ccc2nc3n(c2c1)C(c1c(Cl)cccc1Cl)SC3 (stereo unspecified)
inactive: [1] 14.8 µM | [3] 17 µM | [20] 18.5 µM | [4] 10.5 µM | [5] 23.1 µM | [6] 11.5 µM | [8] 27.6 µM | [9] 16 µM | [10] 18.1 µM | [11] 13.3 µM | [12] 11.3 µM | [13] 14.9 µM | [15] 21.6 µM | [16] 18.2 µM | [17] 18.1 µM | [18] 17.8 µM | [19] 14.5 µM

CC1OC(O[C@H]2CC[C@]3(C)[C@H]4CC=C5[C@@H]6[C@@H](C)[C@H](C)CC[C@]6(C(=O)O)CC[C@@]5(C(=O)O)[C@]4(C)CC[C@H]3C2(C)C)C(O)C(O)C1O (stereo partly specified)
inactive: [1] > 75 µM | [2] 28.8 µM | [3] > 75 µM | [20] > 75 µM | [4] > 75 µM | [5] > 75 µM | [7] > 75 µM | [8] > 75 µM | [9] > 75 µM | [10] > 75 µM | [12] > 75 µM | [13] > 75 µM | [15] > 75 µM | [16] > 75 µM | [17] > 75 µM | [18] > 75 µM | [19] > 75 µM

COc1ccc(N)c(C(=O)CCNC(C)=O)c1 [KINURENAMINE]
inactive: [1] > 100 µM | [2] > 100 µM | [3] > 100 µM | [4] > 100 µM | [5] > 100 µM | [6] > 100 µM | [8] > 100 µM | [9] > 100 µM | [10] > 100 µM | [12] > 100 µM | [13] > 100 µM | [14] > 100 µM | [15] > 100 µM | [16] > 100 µM | [17] > 100 µM | [18] > 100 µM | [19] > 100 µM
